The numbers were not newly measured in article PMC11054727 (Viruses, 2024), which cites them from elsewhere.

Where two headings read alike, the source gives them in different places.

What is called EC50 is the concentration needed to bring the measured effect to its halfway point.

For data set [1], the system named is SARS-CoV-2. Particulars: cited from earlier work.
The test system of data set [2] is SARS-CoV-2. The arrangement: method as in ref 23. Particulars: Table S1, experimental antiviral activity; read-out: Observed EC50; cited from earlier work.
Data set [3] deals with SARS-CoV-2. The settings on record: cited from earlier work. The source holds these as a separate data set.
The test system of data set [4] is hCoV-OC43. Also noted: method as in ref 2 = [2]. Particulars: read-out: EC50 hCoV-OC43 infections; cited from earlier work.
The subject of data set [5] is SARS-CoV-2 Spike. The settings on record: read-out: Spike-mediated fusion activity EC50; cited from earlier work.
Data set [6] concerns Nsp5 Main protease (Mpro). The settings on record: cited from earlier work.
Data set [7] relates to SARS-CoV-2 pseudovirus. The arrangement: method as in ref 48 = [48]. Particulars: read-out: EC50 pseudovirus entry; cited from earlier work.
Where [8] appears, read: experimental CPE data, read-out: EC50 CPE.

On to `CCOC(=O)c1c(CS(=O)(=O)c2ccc(Cl)cc2)n(C)c2cc(Br)c(O)c(CN(C)C)c12` [1b], for which the 50% effective concentration (EC50) in data set [1] (setting [8]) is 29.5 µM.
`COc1ccc(Nc2cc3nc4ccccc4n(-c4ccc(Cl)cc4)c-3cc2=N)cc1` [6d]: in data set [2], the EC50 is 154 µM.
In the case of `COc1ccc(Nc2cc3nc4ccccc4n(-c4ccc(Cl)cc4)c-3cc2=N)c(OC)c1` [6e], the EC50 in data set [2] was 16.1 µM.
`Clc1ccc(Nc2cc3nc4ccccc4n(-c4ccc(Cl)cc4)c-3cc2=NC2CC2)cc1` [7a]: the EC50 in data set [2] was 141 µM.
For the compound `CC(C)N=c1cc2n(-c3ccc(Cl)cc3)c3ccccc3nc-2cc1Nc1ccccc1` [7c], in data set [2], the concentration giving a half-maximal response (EC50) was 40.9 µM.
For the compound `COc1ccc(Nc2cc3nc4ccccc4n(-c4ccc(Cl)cc4)c-3cc2=NC(C)C)cc1` [7g], in data set [2], the EC50 was 16.6 µM.
On to `CC(C)N=c1cc2n(-c3ccc(Cl)cc3)c3ccccc3nc-2cc1Nc1ccc(OC(F)(F)F)cc1` [7i], for which the EC50 in data set [2] is 10 µM.
Regarding `CC(C)N=c1cc2n(-c3ccc(Cl)cc3)c3ccccc3nc-2cc1NCc1ccc(Cl)cc1` [7k], in data set [2], the half-maximal effective concentration (EC50) is 12.4 µM.
As for `CC(C)N=c1cc2n(-c3ccc(F)cc3)c3ccccc3nc-2cc1Nc1ccc(Cl)cc1` [15a], the EC50 in data set [2] is 29.6 µM.
Turning to `CC(C)N=c1cc2n(-c3ccc(F)cc3)c3ccccc3nc-2cc1Nc1ccc(F)cc1` [15b], the EC50 in data set [2] was 81.1 µM.
On to `COc1ccc(-n2c3cc(=NC(C)C)c(Nc4cccc(F)c4)cc-3nc3ccccc32)cc1` [15f], for which the EC50 in data set [2] is 14.6 µM.
Take `COc1ccc(-n2c3cc(=NC(C)C)c(Nc4ccc(F)cc4)cc-3nc3ccccc32)cc1` [15g]: in data set [2], the EC50 was 10 µM.
Take `COc1ccc(-n2c3cc(=NC4CC4)c(Nc4ccc(F)cc4)cc-3nc3ccccc32)cc1` [15h]: the EC50 in data set [2] was 33.1 µM.
`C=C[C@@]1(C)CC(=O)[C@]2(O)[C@@]3(C)[C@@H](O)CCC(C)(C)[C@@H]3[C@H](OC(=O)CCN(C)C)[C@H](OC(C)=O)[C@@]2(C)O1.Cl` [NKH477]: the “extent of inhibition in CPE assays” value in data set [1] (Vero E6 cells) is given as “partial inhibitors”.
Regarding `CCC(CC)COC(=O)[C@H](C)N[P@](=O)(OC[C@H]1O[C@@](C#N)(c2ccc3c(N)ncnn23)[C@H](O)[C@@H]1O)Oc1ccccc1` [Remdesivir], in data set [1], the “extent of inhibition in CPE assays” value is listed as “full inhibitors”.
As for `CCOC(=O)c1c(CSc2ccccc2)n(C)c2cc(Br)c(O)c(CN(C)C)c12` [compound 1, Arbidol], the results for the EC50 in data set [2] and in data set [1] (setting [8]) were 10 µM and 5.6 µM, respectively. Also, the “extent of inhibition in CPE assays” value in data set [1] is “partial inhibitor”.
As to `CC(C)/N=c1\cc2n(-c3ccc(Cl)cc3)c3ccccc3nc-2cc1Nc1ccc(Cl)cc1` [compound 2, Clofazimine], the “extent of inhibition in infection assays” value in data set [3] (Vero E6, Huh7, and Caco-2 cells) is reported as “full inhibitor”. For the same compound, the EC50 in data set [3] (same study as hCoV-OC43, read-out: EC50 SARS-CoV-2 infections) was 0.01 µM; in data set [4] it was 0.35 µM; in data set [1] (read-out: consensus EC50 antiviral activity), 0.31 µM; in data set [5], 2.56 µM. The “Nsp5 Main protease (Mpro) activity” value in data set [6] is on record as “zero activity”.
In the case of `CN(C)CCOc1ccc(/C(=C(/CCCl)c2ccccc2)c2ccccc2)cc1` [compound 3, Toremifene], the EC50 in data set [3] (read-out: EC50 live SARS-CoV-2 infections) was 3.58 µM; in data set [7] it was 1.92 µM.
As for `CC(CN(C)C)CN1c2ccccc2CCc2ccccc21` (stereo not drawn) [trimipramine], the “extent of inhibition in CPE assays” value in data set [1] (Vero E6 cells) is “partial inhibitors”.
